{"source": "patent US20220127297A1", "about": "“Novel Antibacterial 3\"-Derivatives Of 4,6-Disubstituted 2,5-Dideoxystreptamine Aminoglycoside Antibiotics” (AGILeBiotics B.V., priority 2018, published 2022)", "key": {"K. pneumoniae DSM 26371": {"test_system": "K. pneumoniae DSM 26371", "assay": "MIC 50, broth micro-dilution, DSM strains", "format": "cell-based, Klebsiella pneumoniae", "excerpt": "3.2 Against Selected Bacteria of the ESKAPE Panel and Enterococcus faecalis (DSM Strains)\nTested reference compounds. Amikacin sulfate (Cat. No. 01693, Chem-Impex), Gentamicin sulfate (Cat. No. G4918, Sigma Aldrich).\nMicrobial strains. Enterococcus faecalis DSM 2570, Klebsiella pneumoniae DSM 26371, Acinetobacter baumannii DSM 105126, Enterobacter cloacae 3MRGN (clinical bronchial aspirate isolate).\nCulture media and equipment. BBL™ Mueller Hinton Broth 2 (Lot. BCBW1143, Cat. No. 70192, Sigma); Trypcase Soy Blood-agar plates (Cat. No. 43001, Biomérieux); Cryoinstant (contains 15% glycerol; Cat. No. 822070ZA, VWR International); GasPak™ EZ Standard Incubation Container (Cat. No. 260671, Becton Dickinson); GasPak™ EZ Campy Container System Sachets (Cat. No. 260680, Becton Dickinson); 96-well deep well plate, 1 mL (Cat. No. 0030506.200, Eppendorf); Plate lid (Cat. No. 0030131.525, Eppendorf); 96-well plate, F-bottom (Cat. No. 260860, Nunc); Incubator (Sartorius Certomat BS-1); Laminar flow (Heraeus HS12); UV/VIS meter (Perkin Elmer Lambda Bio+); Platereader (Tecan Infinite M200 Pro).\nCompound preparation. Compounds were prepared in MH2 media at a concentration of 5 mM and stored at 4° C. For testing, solutions of 128 μM were prepared in MH2, for tests against E. faecalis a solution of 512 μM was prepared. Out of these working solutions, 400 μL was transferred to wells in the first column of 96-well deep well plates. Each compound was transferred in triplicate. Plates were previously filled with 200 μL of MH2 media in all wells except for the wells in the first column. After compound and antibiotic addition, the compounds were serial two-fold diluted by transferring 200 μL from the first to the second column, then from the second to the third column and so on. Finally, 200 μL was removed from the last column.\nInoculum preparation. Microorganisms used were all revived from 15% glycerol storage in Croinstant tubes at −28° C. by plating them on blood agar plates. A. baumanni, and E. cloacae were grown aerobically at 37° C., E. faecalis was grown microaerophilically at 37° C., and K. pneumoniae was grown aerobically at 37° C. Plates were stored at 4° C. for up to two weeks, after which new plates were prepared from −28° C. A single colony was inoculated in MH2 media and grown at 37° C. and 200 rpm to an optical density (measured by UV/Vis spectroscopy) of 0.6-0.8 at 600 nm. Out of these suspensions, actual inoculums were prepared by diluting them to an optical density of 0.1 in MH2 media. From these inoculums, 200 μL was transferred to each well, resulting in a final compound concentration range of 64 μM-31.3 nM for, K. pneumoniae, A. baumanni, and E. cloacae, and 256 μM-125 nM for E. faecalis. Plates inoculated with E. faecalis were placed inside a GasPak™ Container System with GasPak™ Campy Container System sachets. All plates were incubated at 200 rpm for 18 h under the microorganism culturing conditions mentioned above.\nMIC determination. After 18 h of growth, 200 μL was transferred to a 96-well F-bottom plate. The optical density was determined by a plate reader at 600 nm, with 10 s shaking before reading. Triplicate measurements were averaged, and a growth curve was plotted in Excel. The first column in which the growth reached half the value of maximum growth was determined as the MIC50 value for that particular compound.\nMIC50. The MIC50 of a compound was assigned at which the bacterial growth reached half the value of maximum growth."}, "E. coli ATCC25922 strain": {"test_system": "E. coli ATCC25922 strain", "assay": "MIC 50, broth micro-dilution, wild-type Escherichia coli", "format": "cell-based", "settings": "MH2, 18 h", "method_in_brief": "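E. coli ATCC 25922, parental or carrying resistance/vector plasmids (plasmid strains selected with 50 μg/mL kanamycin A), inoculated at OD600 0.1 in MH2 broth with two-fold compound dilutions, final 64 μM–31.3 nM, in triplicate. Incubated 18 h, 37° C, shaking. OD600 read; MIC50 = first concentration where growth reached half of maximum.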"}, "[1]": {"settings": "Klebsiella pneumoniae, DSM26371, K. pneumoniae DSM 26371, read-out: MIC 50"}, "[2]": {"settings": "Escherichia coli, ATCC25922, 18 h"}}, "note": "Like-named read-outs stand apart in the source and are kept apart here."}
{"smiles": "N=C(N)NC1[C@@H](O)C(OC2[C@@H](O)[C@H](O[C@H]3OC(CN)[C@@H](O)[C@H](O)C3N)C(N)C[C@H]2NC(=O)[C@@H](O)CCN)O[C@H](CO)[C@H]1O", "note": "(stereo partly drawn) [ABX4009, KanaB-AHB-Gua]", "values": [{"measurement": "MIC50", "setting": "K. pneumoniae DSM 26371; K. pneumoniae DSM 26371", "value": 1, "unit": "µM"}, {"measurement": "MIC50", "setting": "E. coli ATCC25922 strain", "value": 2, "unit": "µM"}]}
{"smiles": "N=C(NCCCN)NC1[C@@H](O)C(OC2[C@@H](F)[C@H](O[C@H]3OC(CN)[C@@H](O)CC3N)C(N)C[C@H]2NC(=O)[C@@H](O)CCN)O[C@H](CO)[C@H]1O", "note": "(stereo partly drawn) [ABX5030, Tobra-AHB-F-Gua-3-amino-propyl]", "values": [{"measurement": "MIC50", "setting": "K. pneumoniae DSM 26371; [1]", "value": 0.125, "unit": "µM"}, {"measurement": "MIC50", "setting": "E. coli ATCC25922 strain; [2]", "value": 0.25, "unit": "µM"}]}
{"smiles": "NCC[C@H](O)C(=O)N[C@@H]1CC(N)[C@@H](O[C@H]2OC(CN)[C@@H](O)CC2N)[C@H](F)C1OC1O[C@H](CO)[C@@H](O)C(N)[C@H]1O", "note": "(stereo partly drawn) [ABX5024, Tobra-AHB-F]", "values": [{"measurement": "MIC50", "setting": "K. pneumoniae DSM 26371; K. pneumoniae DSM 26371", "value": 1, "unit": "µM"}, {"measurement": "MIC50", "setting": "E. coli ATCC25922 strain", "value": 1, "unit": "µM"}]}
{"smiles": "NCC[C@H](O)C(=O)N[C@@H]1CC(N)[C@@H](O[C@H]2OC(CN)[C@@H](O)[C@@H](O)C2N)[C@H](F)C1OC1O[C@H](CO)[C@@H](O)C(N)[C@H]1O", "note": "(stereo partly drawn) [ABX4003, 3′Epi-KanaB-AHB-F]", "values": [{"measurement": "MIC50", "setting": "K. pneumoniae DSM 26371; K. pneumoniae DSM 26371", "value": 0.5, "unit": "µM"}, {"measurement": "MIC50", "setting": "E. coli ATCC25922 strain", "value": "4 to 8", "unit": "µM"}]}
{"smiles": "N=C(NCC1CCOC1)NC1[C@@H](O)C(OC2[C@@H](F)[C@H](O[C@H]3OC(CN)[C@@H](O)CC3N)C(N)C[C@H]2NC(=O)[C@@H](O)CCN)O[C@H](CO)[C@H]1O", "note": "(stereo partly drawn) [ABX5051, Tobra-AHB-F-Gua tetrahydrofuran-3-yl methyl]", "values": [{"measurement": "MIC50", "setting": "K. pneumoniae DSM 26371; [1]", "value": 0.5, "unit": "µM"}, {"measurement": "MIC50", "setting": "E. coli ATCC25922 strain; [2]", "value": 0.5, "unit": "µM"}]}
{"smiles": "NCCC(O)C(=O)NC1CC(N)C(OC2OC(CN)C(O)C(O)C2O)C(F)C1OC1OC(CO)C(O)C(N)C1O", "note": "(stereo not drawn) [ABX3005, 3′Epi-KanaA-AHB-F]", "values": [{"measurement": "MIC50", "setting": "K. pneumoniae DSM 26371; K. pneumoniae DSM 26371", "value": 1, "unit": "µM"}, {"measurement": "MIC50", "setting": "E. coli ATCC25922 strain", "value": 4, "unit": "µM"}]}
{"smiles": "CNCCNC(=N)NC1[C@@H](O)C(OC2[C@@H](F)[C@H](O[C@H]3OC(CN)[C@@H](O)CC3N)C(N)C[C@H]2NC(=O)[C@@H](O)CCN)O[C@H](CO)[C@H]1O", "note": "(stereo partly drawn) [ABX5038, Tobra-AHB-F-Gua 2-(methylamino)ethyl]", "values": [{"measurement": "MIC50", "setting": "K. pneumoniae DSM 26371; [1]", "value": 0.5, "unit": "µM"}, {"measurement": "MIC50", "setting": "E. coli ATCC25922 strain; [2]", "value": 0.25, "unit": "µM"}]}
{"smiles": "NCC[C@H](O)C(=O)N[C@@H]1C[C@H](N)[C@@H](O[C@H]2O[C@H](CN)[C@@H](O)[C@@H](O)[C@H]2O)[C@H](O)[C@H]1O[C@H]1O[C@H](CO)[C@@H](O)[C@H](N)[C@H]1O", "note": "[ABX3002, 3′Epi-KanaA-AHB]", "values": [{"measurement": "MIC50", "setting": "K. pneumoniae DSM 26371; K. pneumoniae DSM 26371", "value": 8, "unit": "µM"}, {"measurement": "MIC50", "setting": "E. coli ATCC25922 strain", "value": "16 to 32", "unit": "µM"}]}
{"smiles": "N=C(NCc1cnc[nH]1)NC1[C@@H](O)C(OC2[C@@H](F)[C@H](O[C@H]3OC(CN)[C@@H](O)CC3N)C(N)C[C@H]2NC(=O)[C@@H](O)CCN)O[C@H](CO)[C@H]1O", "note": "(stereo partly drawn) [ABX5050, Tobra-AHB-F-Gua imidazol-5-yl methyl]", "values": [{"measurement": "MIC50", "setting": "K. pneumoniae DSM 26371; [1]", "value": 0.5, "unit": "µM"}, {"measurement": "MIC50", "setting": "E. coli ATCC25922 strain; [2]", "value": 1, "unit": "µM"}]}
{"smiles": "N=C(NCc1ccncc1)NC1[C@@H](O)C(OC2[C@@H](F)[C@H](O[C@H]3OC(CN)[C@@H](O)CC3N)C(N)C[C@H]2NC(=O)[C@@H](O)CCN)O[C@H](CO)[C@H]1O", "note": "(stereo partly drawn) [ABX5048, Tobra-AHB-F-Gua pyridin-4-yl methyl]", "values": [{"measurement": "MIC50", "setting": "K. pneumoniae DSM 26371; [1]", "value": 0.5, "unit": "µM"}, {"measurement": "MIC50", "setting": "E. coli ATCC25922 strain; [2]", "value": 1, "unit": "µM"}]}
{"smiles": "N=C(N)NC1[C@@H](O)C(OC2[C@@H](F)[C@H](O[C@H]3OC(CN)[C@@H](O)[C@H](O)C3O)C(N)C[C@H]2NC(=O)[C@@H](O)CCN)O[C@H](CO)[C@H]1O", "note": "(stereo partly drawn) [ABX3003, 3′epi-KanaA-AHB-F-Gua]", "values": [{"measurement": "MIC50", "setting": "K. pneumoniae DSM 26371; [1]", "value": 0.5, "unit": "µM"}, {"measurement": "MIC50", "setting": "E. coli ATCC25922 strain; [2]", "value": 2, "unit": "µM"}]}
{"smiles": "NCC[C@H](O)C(=O)N[C@@H]1CC(N)[C@@H](O[C@H]2OC(CN)[C@@H](O)CC2N)[C@H](O)C1OC1O[C@H](CO)[C@@H](O)C(N)[C@H]1O", "note": "(stereo partly drawn) [ABX5004, Tobra-AHB]", "values": [{"measurement": "MIC50", "setting": "K. pneumoniae DSM 26371; K. pneumoniae DSM 26371", "value": 1, "unit": "µM"}, {"measurement": "MIC50", "setting": "E. coli ATCC25922 strain", "value": 2, "unit": "µM"}]}
{"smiles": "NCCC(O)C(=O)NC1CC(N)C(OC2OC(CN)C(O)C(O)C2N)C(F)C1OC1OC(CO)C(O)C(N)C1O", "note": "(stereo not drawn) [ABX4007, KanaB-AHB-F]", "values": [{"measurement": "MIC50", "setting": "K. pneumoniae DSM 26371; K. pneumoniae DSM 26371", "value": 0.5, "unit": "µM"}, {"measurement": "MIC50", "setting": "E. coli ATCC25922 strain", "value": 1, "unit": "µM"}]}
{"smiles": "NCC[C@H](O)C(=O)N[C@@H]1C[C@H](N)[C@@H](O[C@H]2O[C@H](CN)[C@@H](O)[C@H](O)[C@H]2O)[C@H](O)[C@H]1O[C@H]1O[C@H](CO)[C@@H](O)[C@H](N)[C@H]1O", "note": "[Amikacin, amikacin, reference compound]", "values": [{"measurement": "MIC50", "setting": "K. pneumoniae DSM 26371; [1]", "value": 0.5, "unit": "µM"}, {"measurement": "MIC50", "setting": "E. coli ATCC25922 strain; Escherichia coli, read-out: MIC 50", "value": 2, "unit": "µM"}]}
{"smiles": "N=C(N)NC1[C@@H](O)C(OC2[C@@H](F)[C@H](O[C@H]3OC(CNCCO)[C@@H](O)CC3N)C(N)C[C@H]2NC(=O)[C@@H](O)CCN)O[C@H](CO)[C@H]1O", "note": "(stereo partly drawn) [ABX5045, 6N-2-hydroxy-ethyl-Tobra-AHB-F-Gua]", "values": [{"measurement": "MIC50", "setting": "K. pneumoniae DSM 26371; [1]", "value": 0.5, "unit": "µM"}, {"measurement": "MIC50", "setting": "E. coli ATCC25922 strain; [2]", "value": 1, "unit": "µM"}]}
